The text below walks through data of patent US9963726B2, “Fiber-containing carbohydrate composition” (Tate & Lyle Ingredients Americas LLC, priority 2006, dated 2018).

This experiment concerns healthy human subjects. The experiment is described as follows: Blood glucose response in healthy human subjects. Format: in vivo. As to conditions: 10 healthy human subjects. The protocol: Samples containing 25 g (dsb) of the syrup were prepared as follows. 2.838 kg of filtered water was added to a jug containing a pre-weighed quantity of RCS. The lid was placed on the jug, and it was then mixed thoroughly by shaking and swirling until all syrup was dissolved. 12 oz. (350 g) of this solution contained 25 g of the test carbohydrate on a dry solids basis.
The control solution was prepared by mixing 25 g anhydrous glucose with 300 mL of water.
The samples were administered to 10 healthy human subjects. The characteristics of the subjects were: 5 male, 5 female; age, 35±10 y; body mass index, 24.0±3.8 kg/m^2. Each subject undertook nine tests on separate days which included the six test foods and on three occasions the standard glucose drink containing 25 g of available carbohydrate. Blood glucose was measured fasting and at 15, 30, 45, 60, 90 and 120 minutes after eating. Incremental areas under the blood glucose response curves (iAUC) were calculated. Each subject's iAUC after consumption of each test food was expressed as a percentage of the mean iAUC of the three glucose controls taken by the same subject. The incremental areas under the curve and relative glycemic response (RGR) of the products were: […]

Marks after values point to notes of the source that are not given here.

As for `OC[C@H]1OC(O)[C@H](O)[C@@H](O)[C@@H]1O` (some centres unmarked) [Glucose, anhydrous glucose], the “iAUC (incremental area under the blood glucose response curve)” value (25 g (dsb), blood glucose fasting to 120 minutes) is recorded as 124.4 ± 13.5^a. Besides, the “RGR (relative glycemic response)” value (iAUC as percentage of mean iAUC of the three glucose controls of the same subject) is 100^a.
